Reference: ChEMBL document CHEMBL1862790, “Optimisation of fenarimol series for the treatment of Chagas disease”
pIC50: −log10 of the molar value.

What was measured:
[1] = test system: Trypanosoma cruzi; experiment: microbe, parasite or virus in culture; assay type: functional, organism-based, Tulahuen LacZ, Clone C4; conditions: Trypanosoma cruzi, Tulahuen LacZ, Clone C4
[2] = DNDI: Cytotoxicity against L-6 rat myoblasts from skeletal muscle cells; conditions: L6 rat skeletal muscle myoblast cells
[3] = test system: Trypanosoma cruzi; experiment: microbe, parasite or virus in culture; assay type: functional, Tulahuen LacZ, Clone C4; conditions: Trypanosoma cruzi, Tulahuen LacZ, Clone C4

| SMILES | pIC50 [1] | pIC50 ([2]; IC50) | IC90 [3] | pIC50 [2] |
| --- | --- | --- | --- | --- |
| Clc1ccc(C(c2cccnc2)N2CCCCC2)cc1 (stereo not drawn) | 6.74 | < 4.00 | 0.45 µM |  |
| Cc1ccccc1C(O)(c1ccc(Cl)cc1)c1cccnc1 (stereo not drawn) | 6.43 |  | 2.78 µM | 4.21 |
| CC(C)CC(O)(c1ccc(Cl)cc1)c1cncnc1 (stereo not drawn) | 5.94 | < 4.00 | 10 µM |  |
| CN1CCN(C(c2ccc(Cl)cc2)c2cccnc2)CC1 (stereo not drawn) | < 6.00 | < 4.00 | > 1 µM |  |
| Clc1ccc(C(NCc2ccccc2)c2cccnc2)cc1 (stereo not drawn) | 7.02 | < 4.00 | 0.21 µM |  |
| CON=C(Cc1ccccc1)c1ccc(Cl)cc1 | < 5.00 | 4.15 | > 10 µM |  |
| CON=C(Cc1ccccc1C)c1cccnc1 | < 6.00 | < 4.00 | > 1 µM |  |
| OC(c1ccc(C(F)(F)F)cc1)(c1cncnc1)c1ccccc1Cl (stereo not drawn) | 6.60 | < 4.00 | 20 µM |  |
| OC(c1ccc(C(F)(F)F)cc1)(c1ccc(C(F)(F)F)cc1)c1cc2ccccc2[nH]1 | 5.40 | 4.94 | 7.59 µM |  |
| OC(c1cccnc1)(c1cccs1)c1ccccc1Cl (stereo not drawn) | 6.46 | < 4.00 | 0.67 µM |  |
| OC(c1ccc(Cl)cc1)(c1cccnc1)c1nccs1 (stereo not drawn) | 6.70 | < 4.00 | 0.505 µM |  |
| FC(c1ccc(Cl)cc1)(c1cccnc1)c1ccccc1Cl (stereo not drawn) | 6.77 | 4.22 | 1 µM |  |
| OC(c1ccc(Cl)cc1)(c1ccncn1)c1ccccc1Cl (stereo not drawn) | 5.15 |  | 8.57 µM | < 4.00 |
| CCCC=C(c1ccc(Cl)cc1)c1cccnc1 | 7.12 | 4.10 | 0.38 µM |  |
| Cc1cccc(C(O)(c2ccc(Cl)cc2)c2cncnc2)c1 (stereo not drawn) | 6.48 | 4.17 | 5.23 µM |  |
| N#Cc1ccccc1C(O)(c1ccc(Cl)cc1)c1cccnc1 (stereo not drawn) | 7.21 | < 4.00 | 0.15 µM |  |
| CCN1CCN(C(c2ccc(Cl)cc2)c2cccnc2)CC1 (stereo not drawn) | < 6.00 | < 4.00 | > 1 µM |  |
| OC(c1ccc(Cl)cc1)(c1cncnc1)c1cccs1 (stereo not drawn) | 7.15 | < 4.00 | 76 µM |  |
| CCCCc1ccc(C(O)(c2ccc(Cl)cc2)c2ccc(Cl)cc2)cn1 | < 6.00 | 4.26 | > 1 µM |  |
| OC(c1ccc(Cl)cc1)(c1cccnc1)c1ccsc1 (stereo not drawn) | 7.11 | < 4.00 | 0.154 µM |  |
| O=C(c1ccc(Cl)cc1)c1ccccc1Cl | < 5.00 | < 4.00 | 10 µM |  |

| SMILES | pIC50 [1] | pIC50 ([2]; IC50) | IC90 [3] | pIC50 [2] |
| --- | --- | --- | --- | --- |
| OC(c1ccc(Cl)cc1)(c1ccc(C(F)(F)F)cc1)c1nnc[nH]1 (stereo not drawn) | 5.13 | < 4.00 | > 10 µM |  |
| OC(c1cccnc1)(c1cccc(C(F)(F)F)c1)c1ccccc1Cl (stereo not drawn) | 6.35 |  | 0.749 µM | 4.24 |
| OC(c1cncnc1)(c1ccccn1)c1ccccc1Cl (stereo not drawn) | 5.13 | < 4.00 | 15.5 µM |  |
| O=C(c1ccc(F)cc1)c1ccc(Cl)cc1 | < 5.00 | < 4.00 | 10 µM |  |
| Cn1cccc1C(O)(c1ccc(Cl)cc1)c1ccc(Cl)cc1 | < 5.00 | 4.25 | > 10 µM |  |
| CON=C(c1ccc(Cl)cc1)c1ccc(Cl)cc1 | < 5.00 | < 4.00 | 10 µM |  |
| CON=C(Cc1ccccc1)c1cccnc1 | < 6.00 | < 4.00 | > 1 µM |  |
| OC(c1ccc(Cl)cc1)(c1ccc(C(F)(F)F)cc1)c1ccc2ncccc2c1 (stereo not drawn) | 5.55 | 4.25 | 7.49 µM |  |
| OC(c1cncnc1)(c1ccccc1F)c1ccccc1Cl (stereo not drawn) | 5.58 | < 4.00 | 9.37 µM |  |
| CC(C)CNC(c1ccc(Cl)cc1)c1cccnc1 (stereo not drawn) | 6.70 | < 4.00 | 0.43 µM |  |
| Cc1ccsc1C(O)(c1ccc(Cl)cc1)c1ccc(Cl)cc1 | < 5.00 | 4.23 | > 10 µM |  |
| OC(c1ccc(Cl)cc1)(c1ccc(Cl)cc1)c1cc(-c2ccccc2)on1 | < 5.00 | 4.27 | > 10 µM |  |
| OC(c1ccc(Cl)cc1)(c1cccnc1)c1cncnc1 (stereo not drawn) | 5.82 | < 4.00 | 59 µM |  |
| Nc1nccnc1C(O)(c1ccc(Cl)cc1)c1ccc(Cl)cc1 | < 5.00 | 4.20 | > 10 µM |  |
| CC(C)CC(O)(c1ccc(Cl)cc1)c1cnccn1 (stereo not drawn) | 6.86 | < 4.00 | 0.337 µM |  |
| OC(c1ccc(Cl)cc1)(c1cccnc1)c1c(F)cccc1Cl (stereo not drawn) | 6.76 |  | 0.469 µM | 4.17 |
| Clc1ccc(C(NCC2CCCCC2)c2cccnc2)cc1 (stereo not drawn) | 7.49 | 4.22 | 0.08 µM |  |
| Cc1ccc(C(O)(c2cccnc2)c2ccccc2Cl)cc1 (stereo not drawn) | 7.15 |  | 0.16 µM | < 4.00 |
| OC(CC1CCCCC1)(c1ccc(Cl)cc1)c1cncnc1 (stereo not drawn) | 6.81 | 4.19 | 0.368 µM |  |
| OC(c1ccc(Cl)cc1)(c1cncnc1)c1ccccc1F (stereo not drawn) | 6.85 | < 4.00 | 0.82 µM |  |
| Cc1ccsc1C(O)(c1ccc(Cl)cc1)c1cccnc1 (stereo not drawn) | 7.70 | 4.13 | 0.09 µM |  |

| SMILES | pIC50 [1] | pIC50 ([2]; IC50) | IC90 [3] | pIC50 [2] |
| --- | --- | --- | --- | --- |
| CON=C(C)c1cccnc1 | < 5.00 |  | > 10 µM | < 4.00 |
| OC(c1ccc(Cl)cc1)(c1cccnc1)c1ccc(Cl)cc1Cl (stereo not drawn) | 7.82 |  | 0.0522 µM | 4.27 |
| OC(c1cccnc1)(c1cncnc1)c1ccccc1Cl (stereo not drawn) | 5.11 | < 4.00 | 10 µM |  |
| CCCCOC(c1ccc(Cl)cc1)c1cccnc1 (stereo not drawn) | 6.91 | 4.20 | 0.296 µM |  |
| OC(c1ccc(Cl)cc1)(c1ccc(Cl)cc1)c1ccco1 | < 5.00 | 4.32 | > 10 µM |  |
| CCCCC(O)(c1ccc(Cl)cc1)c1cncnc1 (stereo not drawn) | 6.30 | < 4.00 | 1.89 µM |  |
| OC(c1cccnc1)(c1ccccc1Cl)c1ccccc1C(F)(F)F (stereo not drawn) | 6.53 |  | 0.724 µM | < 4.00 |
| OC(c1cccnc1)(c1ccsc1)c1ccccc1Cl (stereo not drawn) | 6.29 | < 4.00 | 0.875 µM |  |
| O/N=C(\c1ccc(Cl)cc1)c1ccccc1Cl | 4.33 | 4.26 | 93 µM |  |
| Cc1ccc(C(O)(c2ccc(Cl)cc2)c2cccnc2)s1 (stereo not drawn) | 7.62 | < 4.00 | 0.067 µM |  |
| OC(c1ccc(Cl)cc1)(c1ccc(Cl)cc1)c1cccc(F)c1 | 6.25 | 4.27 | 0.84 µM |  |
| OC(c1ccc(Cl)cc1)c1cccnc1 (stereo not drawn) | 5.32 | < 4.00 | > 10 µM |  |
| CCCCC(O)(c1ccc(Cl)cc1)c1cccnc1 (stereo not drawn) | 7.54 | 4.22 | 0.103 µM |  |
| OC(c1ccc(Cl)cc1)(c1cccnc1)c1sccc1Cl (stereo not drawn) | 7.55 | 4.15 | 0.072 µM |  |
| Clc1ccc(C(NCCN2CCOCC2)(c2cccnc2)c2ccccc2Cl)cc1 (stereo not drawn) | 6.18 | 4.25 | 6.23 µM |  |
| CON=C(Cc1ccc(Cl)cc1Cl)c1cccnc1 | 5.67 | 4.04 | 4.87 µM |  |
| N#Cc1cccc(C(O)(c2ccc(Cl)cc2)c2cccnc2)c1 (stereo not drawn) | 6.96 | < 4.00 | 0.51 µM |  |
| OC(c1ccc(Cl)cc1)(c1cncnc1)c1cccc(F)c1 (stereo not drawn) | 6.08 | < 4.00 | 1.9 µM |  |
| OC(c1ccc(Cl)cc1)(c1cncnc1)c1cccc(Cl)c1 (stereo not drawn) | 6.29 | 4.24 | 10 µM |  |
